The values that follow come from patent US20250388602A1 (Genase Therapeutics B.V., priority 2022, published 2025).

The test system of one series is DENV-2. Description: anti-DENV-2 CPE reduction assay in A549 cells (MTS). The series is classed as cell-based, DENV-2 laboratory-adapted New Guinea C strain. Here is the method: (§1) The lung cancer epithelial cell line A549 was obtained from the American Type Culture Collection (ATCC; Rockville, MD, USA) and cultured in MEM medium (Gibco BRL, Gaithersburg, MD, USA) with 10% fetal calf serum (FCS; Gibco BRL), 2 mM L-glutamine (Gibco BRL) and 0.075% sodium bicarbonate (Gibco BRL).
(§2) The ZIKV MR766 prototype strain and the DENV-2 laboratory-adapted New Guinea C strain were obtained from ATCC and stocks were grown in the C6/36 mosquito cell line (ATCC). Viral stock titers were determined using plaque assay in BHK-21 cells (ATCC).
(§3) The anti-ZIKV and anti-DENV-2 activity in A549 cells was determined using a tetrazolium-based colorimetric cytopathic effect (CPE) reduction assay. This assay has been described in detail before (Virology. 2021; doi.org/10.1016/j.virol.2021.07.003). […] Three hours after MTS incubation, virus was inactivated using 0.5% Triton X-100 (Thermo Fisher Scientific, Waltham, MA, USA) and the absorbance was then recorded at 490 nm with a 96-well plate reader and compared with four cell control replicates (cells without virus and drugs) and four virus control wells (cells with virus but without drug). […] Absorbance was recorded using the VersaMax ELISA™ microplate reader (Molecular Devices) and analyzed with the Softmax Pro® software (Molecular Devices, Version 4.0). […]

A further series deals with recombinant human DHODH (Homo sapiens (Human), UniProt Q02127). Description: DHODH enzyme assay (Assay A), DCIP absorbance. The series is classed as biochemical. As to conditions: bins ≥10 nM-<100 nM and <10 nM; read-out: IC50 DHODH inhibition activity.
Series [1] is described as follows: cytotoxicity in mock-infected A549 cells (MTS). The series is classed as cell-based. As to conditions: human.
Protocol: The anti-ZIKV and anti-DENV-2 activity in A549 cells was determined using a tetrazolium-based colorimetric cytopathic effect (CPE) reduction assay. […] A549 cells (1.5×10^4 cells in 100 μL cell culture medium) were seeded in 96-well flat bottom plates (TPP, Trasadingen, Switzerland) and incubated overnight to allow the cells to grow to confluency. Drug dilutions were prepared in culture medium where FCS concentration was decreased to 2% and threefold diluted in the plates (in duplicate). […] Three hours after MTS incubation, virus was inactivated using 0.5% Triton X-100 (Thermo Fisher Scientific, Waltham, MA, USA) and the absorbance was then recorded at 490 nm with a 96-well plate reader and compared with four cell control replicates (cells without virus and drugs) and four virus control wells (cells with virus but without drug). […] Absorbance was recorded using the VersaMax ELISA™ microplate reader (Molecular Devices) and analyzed with the Softmax Pro® software (Molecular Devices, Version 4.0). […]
Another series has as its target CYP1A2 (Homo sapiens (Human), UniProt P05177). Description: CYP inhibition in pooled human liver microsomes. The class given is in vitro ADME. Here is the method: CYP inhibition: Co-incubation of compounds with P450 enzyme-selective substrates was performed using pooled human liver microsomes (Cat. No. H0610, Xenotech), to determine their potential to cause drug-drug interactions. The assay was performed in duplicate. The formation of acetaminophen, 7′-hydoxycoumarin, hydrobupropion, N-desethylamodiaquine, 4′-hydroxydiclofenac, 4′-hydroxymephenytoin, 1′-hydroxybufuralol, 6″-hydroxychlorzoxazone were quantified as markers for CYP1A2, CYP2A6, […], CYP2C8, CYP2C9, CYP2C19, […], CYP2E1, respectively. CYP3A4 inhibition was measured using 2 substrates, measuring the formation of […] (3A4-T), and 1′-hydroxymidazolam (3A4-M). The incubation was carried out in 96 deep well plates each well containing: 179 μL of the master solution (0.2 mg/mL microsomes plus CYP substrate (see below for final substrate concentration and incubation time for the different CYP assays)) in 100 mM phosphate buffer and 1 μL of the compound working solution or vehicle. The final concentrations of the compounds in the assay was 30 μM when using a single dose or 0.1, 0.3, 1, 3, 10 and 30 μM for a dose response.
The incubation plate was placed into a water bath and pre-warmed at 37° C. for 5 minutes before the reactions were started by the addition of 20 μL of 10 mM NADPH solution and incubated at 37° C. for the time listed above. […]
(Liver microsomes are vesicles of endoplasmic reticulum, rich in cytochrome P450 enzymes.)

For a further series, the system named is ZIKV. Description: anti-ZIKV CPE reduction assay in A549 cells (MTS). The class given is cell-based, ZIKV MR766 prototype strain. Here is the method:
as §1, §2, §3

The test system of a further series is MOLM-13 cells. Description: MOLM-13 cell viability (Assay B), Cell Titer-Glo. The class given is cell-based. The essentials:
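Cells at 1,000 per well in RPMI/10% FBS were exposed to compound (10E-5 to 6E-12 M), with or without 100 μM uridine, for 72 h. Viability was read by CellTiter-Glo luminescence. Duplicates were run, and potency was taken from two independent experiments.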

SMILES strings stand for the structures.

CYP1A2, sequence (P05177 whole entry): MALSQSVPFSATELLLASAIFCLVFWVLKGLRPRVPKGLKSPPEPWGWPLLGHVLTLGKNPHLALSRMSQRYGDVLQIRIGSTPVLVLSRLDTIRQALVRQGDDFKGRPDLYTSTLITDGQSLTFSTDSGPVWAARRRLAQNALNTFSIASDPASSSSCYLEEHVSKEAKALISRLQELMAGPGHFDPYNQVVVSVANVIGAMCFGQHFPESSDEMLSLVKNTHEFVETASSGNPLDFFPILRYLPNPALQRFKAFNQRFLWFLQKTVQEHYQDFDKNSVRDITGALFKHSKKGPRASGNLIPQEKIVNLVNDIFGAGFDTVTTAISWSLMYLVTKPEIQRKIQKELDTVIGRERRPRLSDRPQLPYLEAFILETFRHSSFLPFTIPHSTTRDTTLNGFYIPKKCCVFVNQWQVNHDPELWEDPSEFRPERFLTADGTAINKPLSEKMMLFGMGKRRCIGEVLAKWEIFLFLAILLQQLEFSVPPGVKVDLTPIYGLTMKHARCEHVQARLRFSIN
recombinant human DHODH, sequence (Q02127 whole entry): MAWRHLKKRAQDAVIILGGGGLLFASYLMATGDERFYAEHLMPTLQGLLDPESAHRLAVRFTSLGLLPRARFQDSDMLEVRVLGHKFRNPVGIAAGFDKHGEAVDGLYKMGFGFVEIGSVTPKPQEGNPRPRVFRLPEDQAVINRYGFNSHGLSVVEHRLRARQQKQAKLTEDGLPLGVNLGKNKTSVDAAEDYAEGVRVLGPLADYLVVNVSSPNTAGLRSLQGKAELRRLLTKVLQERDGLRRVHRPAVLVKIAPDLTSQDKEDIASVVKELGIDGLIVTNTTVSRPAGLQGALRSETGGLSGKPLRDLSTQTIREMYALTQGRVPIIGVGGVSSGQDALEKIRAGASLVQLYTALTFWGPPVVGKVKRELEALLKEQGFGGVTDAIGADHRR

On to `COc1ccc(F)c(-n2ncc3c2COC[C@H]3NC(=O)c2ncn3c2CCCC3)c1Cl` (single isomer, unassigned) [Ex-9], for which, in the series on DENV-2 (A549 cells), the “antiviral activity against DENV-2” value was “demonstrating antiviral activity”. Moreover, the IC50 with DENV-2 (Dengue virus, DENV2, A549, 96 h, read-out: IC50 DENV-2 MTS) is 1.6 ± 1 nM; on recombinant human DHODH, less than 10 nM; at CYP1A2, more than 30000 nM; in the series on ZIKV (Zika virus, 72 h, MOI 1, 3 d of infection), 9.3 ± 2 nM; in the series on MOLM-13 cells (Homo sapiens, MOLM-13, 72 hours, bins ≥10 nM-<100 nM and <10 nM, read-out: IC50 MOLM13 inhibition activity), less than 10 nM. This compound had a CC50 in series [1] of 3650 ± 100 nM. Further, the “antiviral activity against ZIKV” value in the series with ZIKV was “demonstrating antiviral activity”. For the same compound, in the series on MOLM-13 cells (absence of uridine), the “MOLM13 cell growth and/or viability (FIG. 2)” value was “reduce MOLM13 cell growth and/or viability”. In addition, in the series with MOLM-13 cells (presence of 100 μM uridine), the “effect on MOLM13 cell growth and/or viability on addition of excess uridine (FIG. 2)” value was “largely prevented”.

By IC50 is commonly meant the concentration at which inhibition is half-maximal. Broadly, the CC50 is the concentration at which the toxic effect on the cells reaches its halfway point. A lower CC50 goes with greater toxicity to the cells.
